Values after ≈ are worked out from the molar mass of the structure shown. Counter-ions that a name gives are not always drawn. Like-named read-outs stand apart in the source and are kept apart here.
Legend:
[1] = test system: susceptible H37Rv M. tuberculosis, strain ATCC 25618; experiment: Mycobacterium tuberculosis susceptibility assay REMA (resazurin microtiter assay); assay type: cell-based; parameters: REMA MIC: unit not given here; details: for MIC: Mycobacterium tuberculosis, 144 h, read-out: REMA MIC
HepG2 cell line = experiment: in vitro cytotoxicity assay (MTS tetrazolium reduction, cell viability); assay type: cell-based; details: Homo sapiens, HepG2, 48 h
Experimental: In an embodiment, the in vitro cytotoxicity assay was carried out as follows. […] The assay was performed in 96 well plates for 48 h at 37° C. and 5% CO2 in incubation medium (low glucose DMEM with Glutamax, 10% FBS, 1% Pen/Strep and DMSO). Cells were exposed to 8 different compound concentrations in successive dilutions (usually, base 2), plus a positive control (a compound in a concentration known to decrease cell viability above 50%) and a negative control (incubation medium). Six replicate wells were assayed for each condition. Compound stock solutions were prepared in DMSO at 20 mM, whenever possible, filter sterilized, aliquoted and stored at −20° C. The maximum compound concentrations tested depend on its solubility in incubation medium, and on the maximum DMSO percentage allowable without loss of cell viability. At the end of the incubation period, tetrazolium reagent was added (CellTiter 96® AQueous Solution from Promega); cells were incubated for another 3 hours in order to promote tetrazolium reduction to formazan by viable cells. The amount of soluble formazan produced was evaluated by 490 nm absorbance reading in a spectrophotometer plate reader.

[2] = Table 1, MTB growth, H37Rv, 6 days at 37° C., Middlebrook 7H9
[3] = Table 2, MTB growth, H37Rv, 6 days at 37° C., Middlebrook 7H9
[4] = Table 1, cytotoxicity, MTS, read-out: IC50

Row | Structure (SMILES) | MIC [1, 2] | MIC [1, 3] | also measured
1 | O=C(O)C1CCN(c2ccc3cc(-c4ccc(OC(F)(F)F)cc4)ccc3n2)CC1 [Compound 2, 1-(6-(4-(Trifluoromethoxy)phenyl)quinolin-2-yl)piperidine-4-carboxylic acid] | < 7.8 µM | < 7.8 µM | 
2 | CCOC(=O)C1CCN(c2ccc3cc(-c4ccc(O)cc4)ccc3n2)CC1 [Compound 3, Ethyl 1-(6-(4-hydroxyphenyl)quinolin-2-yl)piperidine-4-carboxylate] | 7.8 to 15.6 µM (≈ 2.94 to 5.87 µg/mL) |  | IC50 (HepG2 cell line; [4]): > 100 µM
3 | CCOC(=O)C1CCN(c2ccc3cc(-c4cnc(OC)nc4)ccc3n2)CC1 [Compound 4, ethyl 1-(6-(2-methoxypyrimidin-5-yl)quinolin-2-yl)piperidine-4-carboxylate] | < 7.8 µM | < 7.8 µM | IC50 (HepG2 cell line; [4]): > 100 µM; IC50 (HepG2 cell line; Table 2, cytotoxicity, MTS, read-out: IC50): > 100 µM
4 | CCOC(=O)C1CCN(c2ccc3cc(-c4cccc(F)c4)ccc3n2)CC1 [Compound 8, ethyl 1-(6-(3-fluorophenyl)quinolin-2-yl)piperidine-4-carboxylate] | < 7.8 µM | < 7.8 µM | 
5 | CC(C)Oc1ccc(-c2ccc3nc(N4CCC(C(=O)O)CC4)ccc3c2)cc1F [Compound 10, 1-(6-(3-fluoro-4-isopropoxyphenyl)quinolin-2-yl)piperidine-4-carboxylic acid] | < 7.8 µM | < 7.8 µM | 
6 | O=C(O)C1CCN(c2ccc3cc(-c4cccc(F)c4)ccc3n2)CC1 [Compound 11, 1-(6-(3-fluorophenyl)quinolin-2-yl)piperidine-4-carboxylic acid] | < 7.8 µM | < 7.8 µM | 
7 | CCOC(=O)C1CCN(c2ccc3cc(-c4ccc(OC)nc4)ccc3n2)CC1 [Compound 14, ethyl 1-(6-(6-methoxypyridin-3-yl)quinolin-2-yl)piperidine-4-carboxylate] | < 7.8 µM | < 7.8 µM | 
8 | CCOC(=O)C1CCN(c2ccc3cc(-c4ccncc4)ccc3n2)CC1 [Compound 15, ethyl 1-(6-(pyridin-4-yl)quinolin-2-yl)piperidine-4-carboxylate hydrochloride] |  |  | IC50 (HepG2 cell line): > 100 µM; MIC [1]: 7.8 to 15.6 µM
9 | CCOC(=O)C1CCN(c2ccc3cc(-c4ccco4)ccc3n2)CC1 [Compound 16, ethyl 1-(6-(furan-2-yl)quinolin-2-yl)piperidine-4-carboxylate] | 7.8 to 15.6 µM (≈ 2.73 to 5.47 µg/mL) |  | IC50 (HepG2 cell line; [4]): > 100 µM
10 | O=C(O)C1CCN(c2ccc3cc(-c4ccncc4)ccc3n2)CC1 [Compound 18, 1-(6-(pyridin-4-yl)quinolin-2-yl)piperidine-4-carboxylic acid hydrochloride] |  |  | MIC [1]: 7.8 to 15.6 µM
11 | CCOC(=O)C1CCN(c2ccc3cc(-c4ccc(OC)cc4Cl)ccc3n2)CC1 [Compound 19, ethyl 1-(6-(2-chloro-4-methoxyphenyl)quinolin-2-yl)piperidine-4-carboxylate] | < 7.8 µM | < 7.8 µM | 
12 | CCOC(=O)C1CCN(c2ccc3cc(-c4ccc(OC)cc4)ccc3n2)CC1 [Compound 20, ethyl 1-(6-(4-methoxyphenyl)quinolin-2-yl)piperidine-4-carboxylate] |  |  | IC50 (HepG2 cell line): > 100 µM; MIC [1]: 7.8 to 15.6 µM (≈ 3.05 to 6.09 µg/mL)
13 | COc1ccc(-c2ccc3nc(N4CCC(C(=O)O)CC4)ccc3c2)cc1 [Compound 21, 1-(6-(4-methoxyphenyl)quinolin-2-yl)piperidine-4-carboxylic acid] | < 7.8 µM | < 7.8 µM | 
14 | COc1ccc(-c2ccc3nc(N4CCC(C(=O)O)CC4)ccc3c2)c(Cl)c1 [Compound 23, 1-(6-(2-chloro-4-methoxyphenyl)quinolin-2-yl)piperidine-4-carboxylic acid] | 7.8 to 15.6 µM (≈ 3.1 to 6.19 µg/mL) |  | 
15 | CCOC(=O)C1CCN(c2ccc3cc(-c4ccc(OC)cc4C(F)(F)F)ccc3n2)CC1 [Compound 24, ethyl 1-(6-(4-methoxy-2-(trifluoromethyl)phenyl)quinolin-2-yl)piperidine-4-carboxylate hydrochloride] |  |  | MIC [1]: < 7.8 µM; REMA MIC [1, 3]: ++++ (<7.8)
16 | CCOC(=O)C1CCN(c2ccc3cc(-c4cccc(OC(F)(F)F)c4)ccc3n2)CC1 [Compound 25, ethyl 1-(6-(3-(trifluoromethoxy)phenyl)quinolin-2-yl)piperidine-4-carboxylate] | < 7.8 µM | < 7.8 µM | 
17 | O=C(O)C1CCN(c2ccc3cc(-c4cccc(OC(F)(F)F)c4)ccc3n2)CC1 [Compound 29, 1-(6-(3-(trifluoromethoxy)phenyl)quinolin-2-yl)piperidine-4-carboxylic acid] | < 7.8 µM | < 7.8 µM | 
18 | CCOC(=O)C1CCN(c2ccc3cc(-c4ccc(C)nc4)ccc3n2)CC1 [Compound 50, ethyl 1-(6-(6-methylpyridin-3-yl)quinolin-2-yl)piperidine-4-carboxylate] | < 7.8 µM | < 7.8 µM | 
19 | CCOC(=O)C1CCN(c2ccc3cc(-c4ccccn4)ccc3n2)CC1 [Compound 55, ethyl 1-(6-(pyridin-2-yl)quinolin-2-yl)piperidine-4-carboxylate] | < 7.8 µM | < 7.8 µM | 
20 | CCOC(=O)C1CCN(c2ccc3cc(-c4ccc(OC)c(F)c4)ccc3n2)CC1 [Compound 58, ethyl 1-(6-(3-fluoro-4-methoxyphenyl)quinolin-2-yl)piperidine-4-carboxylate] | < 7.8 µM | < 7.8 µM | 
21 | CCOC(=O)C1CCN(c2ccc3cc(-c4ccc(Cl)c(F)c4)ccc3n2)CC1 [Compound 63, ethyl 1-(6-(4-chloro-3-fluorophenyl)quinolin-2-yl)piperidine-4-carboxylate] | < 7.8 µM | < 7.8 µM | 
22 | CCOC(=O)C1CCN(c2ccc3cc(-c4cccc(Cl)c4)ccc3n2)CC1 [Compound 64, ethyl 1-(6-(3-chlorophenyl)quinolin-2-yl)piperidine-4-carboxylate] | 7.8 to 15.6 µM (≈ 3.08 to 6.16 µg/mL) |  | 
23 | CCOC(=O)C1CCN(c2ccc3cc(-c4ccncc4)ccc3n2)C1 (stereo not shown) [Compound 67, ethyl 1-(6-(pyridin-4-yl)quinolin-2-yl)pyrrolidine-3-carboxylate] | 7.8 to 15.6 µM (≈ 2.71 to 5.42 µg/mL) |  | 
24 | CCOC(=O)C1CCN(c2ccc3cc(-c4cc5ccccc5s4)ccc3n2)CC1 [Compound 68, ethyl 1-(6-(benzo[b]thiophen-2-yl)quinolin-2-yl)piperidine-4-carboxylate] | 7.8 to 15.6 µM (≈ 3.25 to 6.5 µg/mL) |  | 
25 | CCOC(=O)C1CCN(c2ccc3cc(-c4ccccc4C(F)(F)F)ccc3n2)CC1 [Compound 69, ethyl 1-(6-(2-(trifluoromethyl)phenyl)quinolin-2-yl)piperidine-4-carboxylate] | < 7.8 µM | < 7.8 µM | 
26 | CCOC(=O)C1CCN(c2ccc3cc(-c4ccccc4OC(F)(F)F)ccc3n2)CC1 [Compound 70, ethyl 1-(6-(2-(trifluoromethoxy)phenyl)quinolin-2-yl)piperidine-4-carboxylate] | < 7.8 µM |  | 
27 | CCOC(=O)C1CCN(c2ccc3cc(-c4ccc(F)cc4OC)ccc3n2)CC1 [Compound 71, ethyl 1-(6-(4-fluoro-2-methoxyphenyl)quinolin-2-yl)piperidine-4-carboxylate] |  | < 7.8 µM | 
28 | CCOC(=O)C1CCN(c2ccc3cc(-c4ccc(OC)c(C(F)(F)F)c4)ccc3n2)CC1 [Compound 72, ethyl 1-(6-(4-methoxy-3-(trifluoromethyl)phenyl)quinolin-2-yl)piperidine-4-carboxylate] | 7.8 to 15.6 µM (≈ 3.58 to 7.15 µg/mL) |  | 
29 | CCOC(=O)C1CCN(c2ccc3cc(-c4cccc(F)c4)ccc3n2)CC1 [Compound 74, ethyl 1-(6-(3-fluorophenyl)quinolin-2-yl)piperidine-4-carboxylate] |  |  | REMA MIC [1, 2]: +++ (7.8-15.6)
30 | CCOC(=O)C1CCN(c2ccc3cc(-c4ccc(F)c(Cl)c4)ccc3n2)CC1 [Compound 75, ethyl 1-(6-(3-chloro-4-fluorophenyl)quinolin-2-yl)piperidine-4-carboxylate] | 7.8 to 15.6 µM (≈ 3.22 to 6.44 µg/mL) |  | 
